# Experimental data as given in US20240116985A1, “STAPLED PEPTIDES AND METHODS THEREOF” (priority 2020, published 2024).
# Values joined by “and” are separate entries in the source; they are usually repeats but may differ in a detail not shown here. Equal values may be shown once. Read-outs that look alike come from different tables or passages of the source.
# Tests used:
# [1] = molecular target: T1, full-length beta-Catenin (Uniprot ID P35222) (Homo sapiens, UniProt P35222); test: Fluorescence polarization IC50 (beta-catenin / 5FAM-TCF4 10-53 competition); format: binding; details: read-out: beta-Catenin FP IC50
# T1 construct: 10 nM full-length beta-Catenin (Uniprot ID P35222)
# T1 sequence (P35222 1-781): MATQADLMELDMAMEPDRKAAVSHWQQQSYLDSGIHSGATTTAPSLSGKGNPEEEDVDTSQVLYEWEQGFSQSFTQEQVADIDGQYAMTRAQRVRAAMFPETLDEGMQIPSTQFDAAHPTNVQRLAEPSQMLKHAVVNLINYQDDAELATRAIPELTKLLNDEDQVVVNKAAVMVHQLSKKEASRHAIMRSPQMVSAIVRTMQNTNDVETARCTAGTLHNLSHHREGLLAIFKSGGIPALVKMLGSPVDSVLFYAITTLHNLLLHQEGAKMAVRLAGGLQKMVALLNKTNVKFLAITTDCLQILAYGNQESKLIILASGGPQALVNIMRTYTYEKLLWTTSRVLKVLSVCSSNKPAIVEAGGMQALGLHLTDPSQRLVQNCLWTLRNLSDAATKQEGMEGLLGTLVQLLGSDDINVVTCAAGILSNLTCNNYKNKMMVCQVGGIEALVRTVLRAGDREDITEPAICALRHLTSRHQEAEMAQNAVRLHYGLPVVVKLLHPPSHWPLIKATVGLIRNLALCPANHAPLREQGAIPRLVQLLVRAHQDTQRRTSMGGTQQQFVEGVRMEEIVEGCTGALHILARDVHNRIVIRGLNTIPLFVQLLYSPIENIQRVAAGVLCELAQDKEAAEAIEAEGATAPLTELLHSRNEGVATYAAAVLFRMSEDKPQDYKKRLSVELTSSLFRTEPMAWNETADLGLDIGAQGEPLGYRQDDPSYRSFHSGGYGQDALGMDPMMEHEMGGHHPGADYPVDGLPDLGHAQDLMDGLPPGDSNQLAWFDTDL
# [2] = CHI Log D procedure; format: physicochemical; details: pH 7.4, CHI Log D
# [3] = Solubility in PBS; format: physicochemical; details: Solubility (uM)
# How it was run: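 PBS sample ultracentrifuged; supernatant run on HPLC vs. 50 μM peptide in DMSO standard. Solubility = (PBS peak area / DMSO peak area) × 50 uM.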
# [4] = molecular target: T2, beta-catenin/TCF4 engagement (Homo sapiens, UniProt P35222); test: Nano-BRET target engagement assay (B-cat-Halo & TCF4-Luc in HEK293 cells); format: cell-based
# T2 construct: expressed in transfected cells; host or cells: HEK293
# T2 sequence (P35222 1-781): T1 sequence (P35222 1-781)
# [5] = system: TCF/LEF luciferase Reporter in DLD1 cells; test: TCF reporter assay (DLD1 TCF/LEF luciferase reporter, Bright-Glo); format: cell-based; details: for DLD1 TCF c2 BrightGlo % Inhibition: replicates
# How it was run: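 Readouts: Bright-Glo luciferase for reporter signal and CellTiter-Glo for cell viability, with absolute IC50 derived. The reporter clone came from lentiviral TCF/LEF-luciferase transduction of DLD1 cells, seeded 5000 cells/well in RPMI with 4% FBS and exposed overnight to serially diluted compounds.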
# [6] = absolute IC50, read-out: DLD1 reporter assay Abs IC50
# [7] = read-out: DLD1 4% Abs IC50, DLD1 4%
# [8] = absolute IC50, read-out: NanoBRET Abs IC50
# [9] = first dose = 20 uM (plate map), 20 µM
# [10] = third dose = 5 uM (plate map), 5 µM
Compound,IC50 [1] [µM],chromatographic logD [2],Solubility [3] [µM],IC50 ([4]; read-out: NanoBRET Abs IC50) [µM],IC50 ([4]; read-out: NanoBRET IC50) [µM],"IC50 [5, 6] [µM]","IC50 [5, 7] [µM]","IC50 [4, 8] [µM]","DLD1 TCF c2 BrightGlo % Inhibition [5, 9]",DLD1 TCF c2 BrightGlo % Inhibition ([5]; 0.625 µM),DLD1 TCF c2 BrightGlo % Inhibition ([5]; 1.25 µM),DLD1 TCF c2 BrightGlo % Inhibition ([5]; 2.5 µM),DLD1 TCF c2 BrightGlo % Inhibition ([5]; 10 µM),"DLD1 TCF c2 BrightGlo % Inhibition [5, 10]"
"CC(=O)N1CCC[C@]12CC=CCCCC1(CCCC=CCCCOC(=O)N3CC[C@@](C(=O)N[C@@H](Cc4ccsc4)C(=O)N[C@@H](Cc4csc5ccccc45)C(=O)N[C@@H](CCC(N)=O)C(N)=O)(C3)NC(=O)[C@H](Cc3ccccc3)NC(=O)[C@H](Cc3ccccc3)NC(=O)[C@H](C)NC(=O)[C@H](C)NC(=O)[C@H](CC(=O)O)NC(=O)[C@H](CC(=O)O)NC1=O)NC(=O)[C@H](CC(C)(C)C)NC(=O)[C@H](CC(=O)O)NC2=O (stereo partly drawn) [I-807, Ac-PL3-Asp-Npg-B5-Asp-Asp-Ala-Ala-Phe-Phe-PyrS2-3Thi-BztA-Gln-NH2]",0.005,2.27,24,3.2,5.3,3.4,–,–,–,–,–,–,–,–
"CC(=O)N1CCC[C@]12CC=CCCCC1(CCCC=CCCCOC(=O)N3CC[C@@](C(=O)N[C@@H](Cc4ccsc4)C(=O)N[C@@H](Cc4csc5ccccc45)C(=O)N[C@@H](CCC(N)=O)C(N)=O)(C3)NC(=O)[C@H]([C@@H](C)O)NC(=O)[C@H](Cc3ccccc3)NC(=O)[C@H](C)NC(=O)[C@H](C)NC(=O)[C@H](CC(=O)O)NC(=O)[C@H](CC(=O)O)NC1=O)NC(=O)[C@H](CC(C)(C)C)NC(=O)[C@H](CC(=O)O)NC2=O (stereo partly drawn) [I-809, Ac-PL3-Asp-Npg-B5-Asp-Asp-Ala-Ala-Phe-Thr-PyrS2-3Thi-BztA-Gln-NH2]",0.005,2.1,36,6.1,11.7,–,11.3,–,–,–,–,–,–,–
"CC(=O)N1CCC[C@]12CC=CCCCC1(CCCC=CCCCOC(=O)N3CC[C@@](C(=O)N[C@@H](Cc4ccsc4)C(=O)N[C@@H](Cc4csc5ccccc45)C(=O)N[C@H](C(N)=O)[C@@H](C)O)(C3)NC(=O)[C@H](CC(N)=O)NC(=O)[C@H](Cc3ccccc3)NC(=O)[C@H](C)NC(=O)[C@H](C)NC(=O)[C@H](CC(=O)O)NC(=O)[C@H](CC(=O)O)NC1=O)NC(=O)[C@H](CC(C)(C)C)NC(=O)[C@H](CC(=O)O)NC2=O (stereo partly drawn) [I-814, Ac-PL3-Asp-Npg-B5-Asp-Asp-Ala-Ala-Phe-Asn-PyrS2-3Thi-BztA-Thr-NH2]",0.007,2.1,47,18.9,12.7,–,16.5,–,–,–,–,–,–,–
"CC(=O)N1CCC[C@]12CC=CCCCC1(CCCC=CCCCOC(=O)N3CC[C@@](C(=O)N[C@@H](Cc4ccsc4)C(=O)N[C@@H](Cc4csc5ccccc45)C(=O)N[C@@H](CO)C(N)=O)(C3)NC(=O)[C@H](CC(N)=O)NC(=O)[C@H](Cc3ccccc3)NC(=O)[C@H](C)NC(=O)[C@H](C)NC(=O)[C@H](CC(=O)O)NC(=O)[C@H](CC(=O)O)NC1=O)NC(=O)[C@H](CC(C)(C)C)NC(=O)[C@H](CC(=O)O)NC2=O (stereo partly drawn) [I-815, Ac-PL3-Asp-Npg-B5-Asp-Asp-Ala-Ala-Phe-Asn-PyrS2-3Thi-BztA-Ser-NH2]",0.005,2.1,46,15.4,11.8,–,10.3,–,–,–,–,–,–,–
"CC(=O)N1CCC[C@]12CC=CCCCC1(CCCC=CCCCOC(=O)N3CC[C@@](C(=O)N[C@@H](Cc4ccccc4)C(=O)N[C@@H](Cc4csc5ccccc45)C(=O)N[C@@H](CCC(N)=O)C(N)=O)(C3)NC(=O)[C@H](Cc3ccccc3)NC(=O)[C@H](Cc3ccccc3)NC(=O)[C@H](C)NC(=O)[C@H](C)NC(=O)[C@H](CN(CC(=O)O)CC(F)(F)F)NC(=O)[C@H](CC(=O)O)NC1=O)NC(=O)[C@H](CC(C)(C)C)NC(=O)[C@H](CC(=O)O)NC2=O (stereo partly drawn) [I-988, Ac-PL3-Asp-Npg-B5-Asp-TfeGA-Ala-Ala-Phe-Phe-PyrS2-Phe-BztA-Gln-NH2]",0.005,2.35,11,–,–,5.2,–,13.9,78.1% and 81.3% and 81.9%,11.0% and 10.7% and 15.5%,5.7% and 22.3% and 21.2%,13.3% and 28.8% and 33.4%,61.5% and 72.0% and 76.2%,32.0% and 57.8% and 62.0%
"CC(=O)N1CCC[C@]12CC=CCCCC1(CCCC=CCCCCCC[C@@](C)(C(=O)N[C@@H](Cc3ccccc3Cl)C(=O)N[C@@H](Cc3csc4ccccc34)C(=O)N[C@@H](CCC(N)=O)C(N)=O)NC(=O)[C@H](CCO)NC(=O)[C@H](Cc3ccccc3)NC(=O)[C@H](C)NC(=O)[C@H](C)NC(=O)[C@H](CN(CC(=O)O)CC(F)(F)F)NC(=O)[C@H](CC(=O)O)NC1=O)NC(=O)[C@H](CC(C)(C)C)NC(=O)[C@H](CC(=O)O)NC2=O (stereo partly drawn) [I-996, Ac-PL3-Asp-Npg-B5-Asp-TfeGA-Ala-Ala-Phe-Hse-S8-2C1F-BztA-Gln-NH2]",0.021,2.84,48,–,–,10.8,3.6,11.3,–,–,–,–,–,–
"CC(=O)N1CCC[C@]12CC=CCCCC1(CCCC=CCCCCCC[C@@](C)(C(=O)N[C@@H](Cc3ccccc3Cl)C(=O)N[C@@H](Cc3csc4ccccc34)C(=O)N[C@@H](CCO)C(N)=O)NC(=O)[C@H](CCO)NC(=O)[C@H](Cc3ccccc3)NC(=O)[C@H](C)NC(=O)[C@H](C)NC(=O)[C@H](CN(CC(=O)O)CC(F)(F)F)NC(=O)[C@H](CC(=O)O)NC1=O)NC(=O)[C@H](CC(C)(C)C)NC(=O)[C@H](CC(=O)O)NC2=O (stereo partly drawn) [I-1000, Ac-PL3-Asp-Npg-B5-Asp-TfeGA-Ala-Ala-Phe-Hse-S8-2C1F-BztA-Hse-NH2]",0.018,2.97,44,–,–,8,1.9,23.9,79.5% (2×) and 79.7%,−3.4% and 2.4% and 4.9%,−0.6% and −1.2% and 1.5%,5.5% and 10.2% and 12.4%,57.0% and 59.8% and 61.4%,25.7% and 29.9% and 32.3%
"CC(=O)N1CCC[C@]12CC=CCCCC1(CCCC=CCCCOC(=O)N3CC[C@@](C(=O)N[C@@H](Cc4ccccc4Cl)C(=O)N[C@@H](Cc4csc5ccccc45)C(=O)N[C@@H](CCC(N)=O)C(N)=O)(C3)NC(=O)[C@H](CC(N)=O)NC(=O)[C@H](Cc3ccccc3)NC(=O)[C@H](CO)NC(=O)[C@H](C)NC(=O)[C@H](CN(CC(=O)O)CC(F)(F)F)NC(=O)[C@H](CC(=O)O)NC1=O)NC(=O)[C@H](CC(C)(C)C)NC(=O)[C@H](CC(=O)O)NC2=O (stereo partly drawn) [I-1004, Ac-PL3-Asp-Npg-B5-Asp-TfeGA-Ala-Ser-Phe-Asn-PyrS2-2C1F-BztA-Gln-NH2]",0.005,2,47,–,–,> 20,–,10.6,–,–,–,–,–,–
"CC(=O)N1CCC[C@]12CC=CCCCC1(CCCC=CCCCOC(=O)N3CC[C@@](C(=O)N[C@@H](Cc4ccccc4Cl)C(=O)N[C@@H](Cc4csc5ccccc45)C(=O)N[C@@H](CCC(N)=O)C(N)=O)(C3)NC(=O)[C@H](CC(N)=O)NC(=O)[C@H](Cc3ccccc3)NC(=O)[C@H](C)NC(=O)[C@H](CC(C)C)NC(=O)[C@H](CN(CC(=O)O)CC(F)(F)F)NC(=O)[C@H](CC(=O)O)NC1=O)NC(=O)[C@H](CC(C)(C)C)NC(=O)[C@H](CC(=O)O)NC2=O (stereo partly drawn) [I-1007, Ac-PL3-Asp-Npg-B5-Asp-TfeGA-Leu-Ala-Phe-Asn-PyrS2-2C1F-BztA-Gln-NH2]",0.006,2.45,18,–,–,3.3,–,24.9,–,–,–,–,–,–
